Assay results reported in PubChem BioAssay (NCI).
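Exposure lasted 48 hours, with cells grown in 96-well plates and compounds tested at five concentrations. Definition used: TGI = concentration required for complete inhibition of growth.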

Assays:
Test in all cases: DTP human tumour cell line panel, 48 h
T-47D breast = tested on: T-47D breast
HCT-116 colon = tested on: HCT-116 colon
NCI-H460 lung = tested on: NCI-H460 lung
SK-OV-3 ovarian = tested on: SK-OV-3 ovarian
SNB-19 CNS = tested on: SNB-19 CNS
DU-145 prostate = tested on: DU-145 prostate
SF-295 CNS = tested on: SF-295 CNS
OVCAR-8 ovarian = tested on: OVCAR-8 ovarian
KM12 colon = tested on: KM12 colon
MALME-3M melanoma = tested on: MALME-3M melanoma

| Structure (SMILES) | TGI (T-47D breast) [µM] | TGI (HCT-116 colon) [µM] | TGI (NCI-H460 lung) [µM] | TGI (SK-OV-3 ovarian) [µM] | TGI (SNB-19 CNS) [µM] | TGI (DU-145 prostate) [µM] | TGI (SF-295 CNS) [µM] | TGI (OVCAR-8 ovarian) [µM] | TGI (KM12 colon) [µM] | TGI (MALME-3M melanoma) [µM] |
| --- | --- | --- | --- | --- | --- | --- | --- | --- | --- | --- |
| CC(=O)NC(Cc1ccc(OP(=O)(OCc2ccc([N+](=O)[O-])o2)N(C)CCCCCl)cc1)C(=O)NC(C)c1ccc(OCC2CCCCC2)c(C(N)=O)c1 (stereo not given) | 6.31 | 5.3 | 15.2 | 37.3 | 14.9 | 15.2 | 16.9 | 21.8 | 8.71 | 5.65 |
| CC[C@@]12C=CC(=S)N(CCSc3ccccc3)[C@@H]1c1c(n(S(=O)(=O)c3ccc(OC)cc3)c3ccccc13)CC2 | > 100 | > 100 | > 100 | > 100 | > 100 | > 100 | > 100 | > 100 | > 100 | > 100 |
| Clc1nc(Cl)c(CBr)c(Cl)n1 | 36.1 | 5.55 | 18.5 | 29 | 33.3 | 30.6 | 16.1 | 10.2 | 7.87 | 28.7 |
| Cc1nc2ccccc2n1Cc1nnc(N)o1 | > 100 | > 100 | > 100 | > 100 | > 100 | > 100 | > 100 | > 100 | > 100 | > 100 |
| CC12CCC(C(Nc3ccccn3)C1=O)C2(C)C (stereo not given) | > 100 | > 100 | > 100 | > 100 | > 100 | > 100 | > 100 | > 100 | > 100 | > 100 |
| O=c1cc(N=Nc2ccc(Cl)cc2)[nH]c(=O)[nH]1 | 11.9 | 3.87 | 12.2 | 22 | 25.2 | 22.6 | 22.3 | 12 | 10.6 | 8.71 |
| CC(C)(C)c1ccc(C(C)(C)C)c(N2C(=O)C3ON=C(c4ccc([N+](=O)[O-])cc4)C3C2=O)c1 (stereo not given) | > 25 | > 25 | > 25 | > 25 | > 25 | > 25 | > 25 | > 25 | > 25 | > 25 |
| Oc1cccc(-c2cn3cc(C(F)(F)F)ccc3n2)c1 | 21.2 | > 100 | > 100 | > 100 | > 100 | 72.5 | 94 | > 100 | > 100 | > 100 |
| CCN1CCC(O)(c2ccc(Oc3ccc(C)cc3)cc2)C(C(=O)c2ccc(Oc3ccc(C)cc3)cc2)C1 (stereo not given) | 33.7 | 19 | 13.8 | 29.7 | 27.2 | 20.1 | 21.4 | 28.2 | 17.8 | 29.7 |
| O=[N+]([O-])c1c2nc3n(c2cc2c1nc1n2CCC1)CCC3 | > 100 | > 100 | > 100 | > 100 | > 100 | > 100 | > 100 | > 100 | > 100 | > 100 |
| CC(=O)OCC1=C(C)C[C@H]([C@@H](COC(C)=O)C2CCC3C4C[C@H]5O[C@]56CC=CC(=O)[C@]6(C)C4CC[C@@]32C)OC1=O (stereo not given in full) | 1.41 | 0.3 | 2.91 | 6.93 | 7.72 | 1.41 | 5.59 | 0.714 | 0.593 | 0.963 |
| CC(C)C1CC[C@H](C)C[C@@H]1OC(=O)C(C(=O)O[C@H]1C[C@@H](C)CCC1C(C)C)C(O)[C@@H]1OC(C)(C)O[C@H]1C1COC(C)(C)O1 (stereo not given in full) | 32.3 | 23.9 | 32.1 | 65.4 | 29.8 | 44.5 | 32.6 | 47.2 | 31.6 | 36 |
| c1ccc2nc(CCC3CCCCN3)ccc2c1 (stereo not given) | > 100 | > 100 | > 100 | > 100 | > 100 | > 100 | > 100 | > 100 | > 100 | > 100 |
| COc1ccc2cc(C(=O)NCCCNC(=O)c3ccc4cc(OC)ccc4c3)ccc2c1 | > 100 | > 100 | > 100 | > 65 | 30.6 | > 100 | > 83.8 | > 66.3 | > 100 | > 100 |
| NC(=O)c1nnsc1NC=O | > 100 | > 100 | > 100 | > 100 | > 100 | > 100 | > 100 | > 100 | > 100 | > 100 |
| CC1(CC2=C(C(=O)NCCO[Si](C)(C)C(C)(C)C)C3(OCCO3)C2=O)OCCO1 | > 100 | > 100 | > 100 | > 100 | > 100 | > 100 | > 100 | > 100 | > 100 | 72.7 |
| NS(=O)(=O)c1nnc(NS(=O)(=O)c2ccccc2C(=O)O)s1 | > 100 | > 100 | > 100 | > 100 | > 100 | > 100 | > 100 | > 100 | > 100 | > 100 |
| COc1cc2c(cc1OCCCC(=O)Nc1cc(C(=O)NCCCN(C)C)n(C)n1)N=CC1CCCN1C2=O (stereo not given) | > 100 | > 37.7 | > 100 | > 62.3 | > 37.4 | > 41.6 | > 100 | > 24 | > 100 | 14.2 |
| COc1ccccc1NC(=O)O/N=C(/Cl)C(C)C | 59.2 | 29.3 | 37.5 | 32.7 | > 56.4 | 33.2 | 29.1 | 28.6 | 39.3 | 7.37 |
